Laboratory results reported in patent US12479847B2 (DANA-FARBER CANCER INSTITUTE, INC., priority 2019, dated 2025).
Where two headings read alike, the source gives them in different places.

Tests used:
Assay in all cases: KINOMEscan (ScanMAX) kinase profiling
Assay type in all cases: binding
[1] = target: T1, panel of 468 kinases (Homo sapiens, UniProt O00329); details: PIK3CD; 1 μM; read-out: % control
T1 construct: purchased KINOMEscan (ScanMAX) service
T1 sequence (O00329 1-1044): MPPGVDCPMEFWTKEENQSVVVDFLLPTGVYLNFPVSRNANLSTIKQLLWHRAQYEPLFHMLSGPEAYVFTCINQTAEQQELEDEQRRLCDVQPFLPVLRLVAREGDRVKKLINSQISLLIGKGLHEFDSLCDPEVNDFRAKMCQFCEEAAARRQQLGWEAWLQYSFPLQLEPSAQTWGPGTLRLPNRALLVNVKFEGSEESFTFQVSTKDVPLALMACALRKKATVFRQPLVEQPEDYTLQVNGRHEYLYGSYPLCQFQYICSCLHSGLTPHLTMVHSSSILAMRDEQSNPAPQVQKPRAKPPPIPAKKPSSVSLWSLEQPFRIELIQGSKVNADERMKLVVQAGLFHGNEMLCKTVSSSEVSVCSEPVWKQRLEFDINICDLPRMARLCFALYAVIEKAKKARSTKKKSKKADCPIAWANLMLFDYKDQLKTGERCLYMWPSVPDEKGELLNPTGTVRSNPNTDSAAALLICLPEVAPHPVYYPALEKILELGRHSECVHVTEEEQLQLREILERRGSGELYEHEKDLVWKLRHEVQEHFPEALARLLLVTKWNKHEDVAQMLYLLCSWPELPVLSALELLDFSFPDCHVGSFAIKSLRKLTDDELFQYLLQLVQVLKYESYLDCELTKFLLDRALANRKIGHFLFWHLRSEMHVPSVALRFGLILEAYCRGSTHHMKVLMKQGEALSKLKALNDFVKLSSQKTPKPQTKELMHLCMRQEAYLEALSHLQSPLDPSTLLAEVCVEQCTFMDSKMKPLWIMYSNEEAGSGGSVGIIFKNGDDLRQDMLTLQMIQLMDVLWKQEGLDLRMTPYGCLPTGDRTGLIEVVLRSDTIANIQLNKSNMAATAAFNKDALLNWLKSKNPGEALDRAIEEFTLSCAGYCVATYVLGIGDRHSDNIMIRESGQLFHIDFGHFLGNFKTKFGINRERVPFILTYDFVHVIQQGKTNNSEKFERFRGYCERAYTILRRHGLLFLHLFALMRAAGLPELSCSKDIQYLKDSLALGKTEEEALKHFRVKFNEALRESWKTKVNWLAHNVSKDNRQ

[2] = target: T2, panel of 468 kinases (Homo sapiens, UniProt Q9NY57); details: YANK2; 1 μM; read-out: % control
T2 construct: purchased KINOMEscan (ScanMAX) service
T2 sequence (Q9NY57 whole entry): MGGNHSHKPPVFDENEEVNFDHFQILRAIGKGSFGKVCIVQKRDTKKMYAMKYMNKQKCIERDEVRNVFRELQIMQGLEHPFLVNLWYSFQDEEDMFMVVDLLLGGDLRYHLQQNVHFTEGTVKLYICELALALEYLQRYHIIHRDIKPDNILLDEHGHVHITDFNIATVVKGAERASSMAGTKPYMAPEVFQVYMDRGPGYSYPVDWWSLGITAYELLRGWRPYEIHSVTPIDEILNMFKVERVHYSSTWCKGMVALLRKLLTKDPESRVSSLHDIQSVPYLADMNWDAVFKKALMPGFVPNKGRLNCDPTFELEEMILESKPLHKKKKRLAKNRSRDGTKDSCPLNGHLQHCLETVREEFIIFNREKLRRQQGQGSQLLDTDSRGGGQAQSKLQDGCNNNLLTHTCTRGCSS

[3] = target: T3, panel of 468 kinases (Homo sapiens, UniProt Q9Y5S2); details: MRCKB; 1 μM; read-out: % control
T3 construct: purchased KINOMEscan (ScanMAX) service
T3 sequence (Q9Y5S2 whole entry): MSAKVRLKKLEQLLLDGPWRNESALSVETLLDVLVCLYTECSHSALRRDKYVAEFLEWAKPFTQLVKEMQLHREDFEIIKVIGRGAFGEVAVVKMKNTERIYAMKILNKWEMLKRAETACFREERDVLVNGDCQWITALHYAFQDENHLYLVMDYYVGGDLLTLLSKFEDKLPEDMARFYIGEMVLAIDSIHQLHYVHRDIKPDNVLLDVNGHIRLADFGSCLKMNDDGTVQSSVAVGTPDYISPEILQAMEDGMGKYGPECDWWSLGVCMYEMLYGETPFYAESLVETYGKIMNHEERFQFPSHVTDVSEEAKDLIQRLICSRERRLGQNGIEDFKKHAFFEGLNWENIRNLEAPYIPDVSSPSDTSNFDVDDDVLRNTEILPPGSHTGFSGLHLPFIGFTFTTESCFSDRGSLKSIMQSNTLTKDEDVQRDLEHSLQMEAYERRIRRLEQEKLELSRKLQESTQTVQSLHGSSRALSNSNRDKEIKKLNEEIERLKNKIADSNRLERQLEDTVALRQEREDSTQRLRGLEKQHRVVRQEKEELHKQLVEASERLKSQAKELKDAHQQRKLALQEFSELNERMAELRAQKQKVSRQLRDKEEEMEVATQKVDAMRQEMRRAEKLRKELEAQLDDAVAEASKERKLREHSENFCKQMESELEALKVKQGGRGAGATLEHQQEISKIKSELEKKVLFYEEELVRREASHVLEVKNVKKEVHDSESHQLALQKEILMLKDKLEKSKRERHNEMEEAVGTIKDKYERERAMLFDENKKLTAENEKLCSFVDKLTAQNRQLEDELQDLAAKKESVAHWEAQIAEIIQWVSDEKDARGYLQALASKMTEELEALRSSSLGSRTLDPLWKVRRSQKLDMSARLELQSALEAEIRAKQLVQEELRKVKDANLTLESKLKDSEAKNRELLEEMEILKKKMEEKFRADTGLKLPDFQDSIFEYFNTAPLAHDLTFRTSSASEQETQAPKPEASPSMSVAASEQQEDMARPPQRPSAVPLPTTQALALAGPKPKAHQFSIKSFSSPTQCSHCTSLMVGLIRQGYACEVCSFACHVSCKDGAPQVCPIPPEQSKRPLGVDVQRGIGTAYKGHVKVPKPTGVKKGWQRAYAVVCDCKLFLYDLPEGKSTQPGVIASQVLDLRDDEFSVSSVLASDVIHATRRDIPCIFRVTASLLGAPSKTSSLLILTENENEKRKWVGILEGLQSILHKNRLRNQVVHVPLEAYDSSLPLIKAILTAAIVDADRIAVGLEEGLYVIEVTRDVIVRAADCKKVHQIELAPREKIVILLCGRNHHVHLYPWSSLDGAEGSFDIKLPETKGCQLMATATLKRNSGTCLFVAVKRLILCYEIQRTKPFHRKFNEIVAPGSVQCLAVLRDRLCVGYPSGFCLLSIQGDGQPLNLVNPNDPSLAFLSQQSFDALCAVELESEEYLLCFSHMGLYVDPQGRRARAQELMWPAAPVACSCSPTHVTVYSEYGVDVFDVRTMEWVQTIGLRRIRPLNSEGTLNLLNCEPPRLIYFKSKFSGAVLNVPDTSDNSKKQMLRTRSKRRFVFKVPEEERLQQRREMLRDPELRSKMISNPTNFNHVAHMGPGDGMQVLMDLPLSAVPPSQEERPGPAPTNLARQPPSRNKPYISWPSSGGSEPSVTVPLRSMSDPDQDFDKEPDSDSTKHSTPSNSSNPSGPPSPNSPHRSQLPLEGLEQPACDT

[4] = target: T4, panel of 468 kinases (Homo sapiens, UniProt P43403); details: ZAP70; 1 μM; read-out: % control
T4 construct: purchased KINOMEscan (ScanMAX) service
T4 sequence (P43403 1-619): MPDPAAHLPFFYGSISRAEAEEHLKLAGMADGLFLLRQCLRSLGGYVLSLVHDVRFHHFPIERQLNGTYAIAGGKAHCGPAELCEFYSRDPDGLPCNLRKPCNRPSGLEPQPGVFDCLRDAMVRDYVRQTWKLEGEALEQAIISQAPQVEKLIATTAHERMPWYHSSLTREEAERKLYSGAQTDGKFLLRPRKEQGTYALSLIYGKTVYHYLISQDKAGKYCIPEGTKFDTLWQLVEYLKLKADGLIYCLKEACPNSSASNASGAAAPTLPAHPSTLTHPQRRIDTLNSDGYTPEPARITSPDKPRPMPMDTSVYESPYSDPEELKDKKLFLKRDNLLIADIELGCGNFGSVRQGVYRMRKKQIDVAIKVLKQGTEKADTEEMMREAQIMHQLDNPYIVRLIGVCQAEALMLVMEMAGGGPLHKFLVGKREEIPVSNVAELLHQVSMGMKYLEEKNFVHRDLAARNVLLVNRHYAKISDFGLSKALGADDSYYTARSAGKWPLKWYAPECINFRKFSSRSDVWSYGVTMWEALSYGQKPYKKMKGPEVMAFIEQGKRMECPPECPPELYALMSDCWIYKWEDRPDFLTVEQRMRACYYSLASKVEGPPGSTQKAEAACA

[5] = target: T5, panel of 468 kinases (Homo sapiens, UniProt P00519, H396P); details: 1 μM, read-out: % control
T5 construct: purchased KINOMEscan (ScanMAX) service

[6] = target: T6, panel of 468 kinases (Homo sapiens, UniProt P11309); details: PIM1; 1 μM; read-out: % control
T6 construct: purchased KINOMEscan (ScanMAX) service
T6 sequence (P11309 whole entry): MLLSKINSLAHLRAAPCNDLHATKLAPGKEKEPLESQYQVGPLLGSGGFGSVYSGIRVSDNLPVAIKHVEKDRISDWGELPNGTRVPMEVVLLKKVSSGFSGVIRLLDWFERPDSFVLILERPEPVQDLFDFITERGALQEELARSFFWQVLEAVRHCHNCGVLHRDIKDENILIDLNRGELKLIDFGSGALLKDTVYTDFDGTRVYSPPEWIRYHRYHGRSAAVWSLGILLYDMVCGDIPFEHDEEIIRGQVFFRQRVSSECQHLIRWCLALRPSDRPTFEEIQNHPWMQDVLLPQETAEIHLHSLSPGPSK

[7] = target: T7, panel of 468 kinases (Homo sapiens, UniProt Q9NYL2); details: ZAK; 1 μM; read-out: % control
T7 construct: purchased KINOMEscan (ScanMAX) service
T7 sequence (Q9NYL2 whole entry): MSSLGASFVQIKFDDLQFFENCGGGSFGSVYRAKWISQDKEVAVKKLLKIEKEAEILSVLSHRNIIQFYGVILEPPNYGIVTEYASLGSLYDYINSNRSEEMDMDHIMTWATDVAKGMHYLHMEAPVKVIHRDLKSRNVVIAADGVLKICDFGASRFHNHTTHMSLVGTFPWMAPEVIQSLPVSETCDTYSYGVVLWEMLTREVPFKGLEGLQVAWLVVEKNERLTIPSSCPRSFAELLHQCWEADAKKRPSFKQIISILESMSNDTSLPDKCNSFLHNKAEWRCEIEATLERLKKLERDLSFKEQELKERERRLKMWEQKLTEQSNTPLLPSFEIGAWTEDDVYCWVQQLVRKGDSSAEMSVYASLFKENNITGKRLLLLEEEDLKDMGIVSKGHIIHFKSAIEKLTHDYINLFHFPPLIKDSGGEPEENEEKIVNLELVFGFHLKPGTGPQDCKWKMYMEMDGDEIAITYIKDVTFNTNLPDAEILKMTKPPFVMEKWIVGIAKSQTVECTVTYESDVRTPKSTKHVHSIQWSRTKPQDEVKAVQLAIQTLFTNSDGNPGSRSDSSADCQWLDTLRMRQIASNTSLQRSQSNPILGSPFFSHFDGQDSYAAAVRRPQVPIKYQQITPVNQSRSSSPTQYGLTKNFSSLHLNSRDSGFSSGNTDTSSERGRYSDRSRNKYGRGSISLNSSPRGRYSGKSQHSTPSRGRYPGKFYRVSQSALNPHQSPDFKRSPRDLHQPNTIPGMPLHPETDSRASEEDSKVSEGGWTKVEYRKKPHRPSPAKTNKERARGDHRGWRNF

| Compound | remaining binding at 1 µM [1] | remaining binding at 1 µM [2] | remaining binding at 1 µM [3] | remaining binding at 1 µM [4] | remaining binding at 1 µM ([5]; ABL1(H396P)-nonphosphorylated) | remaining binding at 1 µM ([5]; ABL1(H396P)-phosphorylated) | remaining binding at 1 µM [6] | remaining binding at 1 µM [7] |
| --- | --- | --- | --- | --- | --- | --- | --- | --- |
| CNc1nc(Nc2ccc(S(=O)(=O)N3CCC(N4CCOCC4)CC3)cc2OC)nc2[nH]cc(Cl)c12 [Compound 12, 5-chloro-N2-(2-methoxy-4-((4-morpholinopiperidin-1-yl)sulfonyl)phenyl)-N4-methyl-7H-pyrrolo[2,3-d]pyrimidine-2,4-diamine] | 96% | 96% | 100% | 65% | 100% | 73% | 100% | 100% |
| CNc1nc(Nc2ccc(P3(=O)CCN(C4CCOCC4)CC3)cc2OC)nc2[nH]cc(Cl)c12 [Compound 77, 4-(4-((5-chloro-4-(methylamino)-7H-pyrrolo[2,3-d]pyrimidin-2-yl)amino)-3-methoxyphenyl)-1-(tetrahydro-2H-pyran-4-yl)-1,4-azaphosphinane 4-oxide] | 92% | 100% | 100% | 37% | 100% | 75% | 100% | 100% |
| CNc1nc(Nc2ccc(C(=O)N3CCC(N4CCOCC4)CC3)c3c2OCO3)nc2[nH]cc(Cl)c12 [Compound 75, (7-((5-chloro-4-(methylamino)-7H-pyrrolo[2,3-d]pyrimidin-2-yl)amino)benzo[d][1,3]dioxol-4-yl)(4-morpholinopiperidin-1-yl)methanone] | 96% | 100% | 100% | 22% | 99% | 82% | 99% | 100% |
